From patent US20230148258A1, “SPERMIDINE-SUPPLEMENTED FOOD PRODUCTS” (KALIN HEALTH LLC, priority 2020, published 2023)

Assays:
[1] = NOAEL (No Observed Adverse Effect Level), Til et al. 1997
Text: Food and Drug Administration GRAS Notice No. 889 Spermidine-Rich Wheat Germ Extract, the entirety of which is incorporated herein by reference. […] Til et al., Food and Chemical Toxicology 1997, v. 35, p. 337-348.

[2] = Til et al., Food and Chemical Toxicology 1997; cited from earlier work
[3] = animal models; 10 minutes after; cited from earlier work

SMILES | NOAEL expressed for a 70 kg person [1] [mg/day] | NOAEL (No Observed Adverse Effect Level) [2] [mg/kg body weight/day] | fraction of amount that reached the lumen found in the portal vein [3]
NCCCNCCCCNCCCN [spermine] | ~106 | 1.52 | Approximately 70%
NCCCCNCCCN [spermidine] | ~470 | 83 | Approximately 70%
